Data on one compound can be found in patent publication US20040033941A1, “Immunosuppression using piceatannol and a calcineurin inhibitor” (priority 2003, published 2004).

Entries after “also recorded” stand apart in the source; their conditions may differ.

Series [1] relates to Syk kinase. The note with it: J. Oliver et al., J. Biol. Chem. 1994; mast cell/allergy studies; cited from earlier work.
For series [2], the system named is hearts from ACI rats transplanted into Lewis rats. Nature of the series: Heterotopic heart transplant, graft survival. In kind it is in vivo, rat. Particulars: at the specified dosages (30 mg/kg piceatannol, 2 mg/kg cyclosporin A).
Procedure: (§1) In vivo studies were conducted using piceatannol obtained from Peninsula Lab. […] We examined the ability of piceatannol/calcineurin mixtures to prolong graft survival. Donor organs from ACI rats were transplanted into Lewis rats.
Prior to transplantation, piceatannol (30 mg/kg) was administered intravenously for three days into one selection of Lewis rats via a catheter placed in the right jugular vein.
At day 3, hearts from ACI rats were heterotopically transplanted into the abdomen of the Lewis rats. […] Following transplantation, fascia and muscle were closed with absorbable suture and skin was closed with nylon.
After surgery animals were placed on a warm pad and observed until they awakened. The animals were then placed in cages in a warm environment with wood chip bedding, and provided rodent chow. To relieve pain, Buprenorphine was also given to the animal. Toxicity in animals was monitored by measuring the blood levels of creatinine and ALT, indicators of kidney and liver function, respectively. Drug administration then continued for an additional seven days after the transplant surgery (and was then discontinued).
In the case of heart transplants, rejection was considered complete when no heart beat was palpable with respect to the transplanted organ. This was confirmed by laparotomy and direct inspection.
Series [3] has as its system transplanted organ. As to the kind of experiment: In vivo use of piceatannol alone as an immunosuppressive.
For series [4], the system named is kidneys from ACI rats transplanted into Lewis rats. In kind it is in vivo.
Procedure: as §1
In other experiments, kidneys from ACI rats were transplanted into Lewis rats. Drug administration continued for an additional seven days after transplant at the same levels. From day 8 through day 60 post-transplant administration continued, albeit with piceatannol reduced to 10 mg/kg/day. Thereafter, drug administration ceased.
Animals were anesthetized. The lower abdomen of the donor was shaved and surgically prepared and a long midline incision was made in the abdominal wall. The left kidney and left ureter, aorta, and vena cava were dissected, and suprarenal and gonadal veins ligated and cut. After ligating the suprarenal aorta and vena cava, a hole made in distal aorta and left kidney was flushed in situ with 3 ml of heparinized cold Euro-Collins' solution. The left kidney and left ureter were removed with an aortic cuff and vena cava patched and kept on ice.
After the lower abdomen of the recipient was shaved and surgically prepared, the recipient animal underwent a left nephrectomy via a long midline incision under inhalation anesthesia, and abdominal aoerta and vena cava were prepared for anastomosis. […]
Series [5] has as its system T and B cell activation. As to the kind of experiment: T and B cell activation. In kind it is cell-based. Particulars: both in vitro and in vivo.

For the compound `Oc1cc(O)cc(/C=C/c2ccc(O)c(O)c2)c1` [piceatannol, 3,4,3′,5′-tetrahydroxy-trans-stilbene], the “inhibition of Syk kinase” value in series [1] was “very effective inhibitor”. Further, in series [2], the “prolongation of heart graft survival (in words)” value is given as “only minimal prolongation effect”. In series [3] (75 mg/kg of body weight per day), the “tolerability / toxicity of piceatannol alone” value was “not well tolerated; also recorded: some toxicity was noted”. The “transplanted organ survival, piceatannol alone” value in series [3] (in vivo use of piceatannol) is “prolongs transplanted organ survival”. Moreover, the “prolonging kidney allograft survival (in words)” value in series [4] (piceatannol 30 then 10 mg/kg/day IV, CsA 2 mg/kg/day IM, day -3 to +60, rejection = serum creatinine over 2 mg/dl or death) is recorded as “not effective”. Besides, the “histological analysis of transplanted kidneys” value in series [4] (single-agent groups, data not shown) is on record as “signs of acute rejection”. Besides, the “T and B cell activation” value in series [5] is reported as “inhibits”.
